Measured values taken from PubChem BioAssay (NCI).
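Method: 48-hour compound exposure of cells in 96-well plates, five concentrations, linear interpolation of endpoints. Abbreviation: GI50, concentration required for 50% inhibition of growth. TGI: total growth inhibition.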 Where a SMILES comes first, the peptide text is derived from it. The star is where a group is joined. Palmitoyl = CCCCCCCCCCCCCCCC(=O)*

Columns and labels:
Assay in all cases: DTP human tumour cell line panel, 48 h
[1] = tested on: UACC-257 melanoma
[2] = tested on: T-47D breast
[3] = tested on: CAKI-1 renal
[4] = tested on: TK-10 renal
[5] = tested on: SF-539 CNS
[6] = tested on: M14 melanoma
[7] = tested on: SK-MEL-5 melanoma
[8] = tested on: OVCAR-3 ovarian
[9] = tested on: MDA-MB-435
[10] = tested on: OVCAR-8 ovarian

SMILES	TGI [1] [µM]	TGI [2] [µM]	TGI [3] [µM]	TGI [4] [µM]	TGI [5] [µM]	TGI [6] [µM]	TGI [7] [µM]	TGI [8] [µM]	TGI [9] [µM]	TGI [10] [µM]	GI50 [1] [µM]	GI50 [2] [µM]	GI50 [3] [µM]	GI50 [4] [µM]	GI50 [5] [µM]	GI50 [6] [µM]	GI50 [10] [µM]	GI50 [7] [µM]	GI50 [8] [µM]	GI50 [9] [µM]
Cc1c(-c2ccccc2)[nH]c2cc(Cl)ccc2c1=O	> 100	> 100	> 100	> 100	> 100	> 100	> 100	> 100	> 100	–	–	–	–	–	–	–	–	–	–	–
COc1cc(C(C)O)c[n+](Cc2ccccc2)c1 (stereo unspecified)	> 100	–	> 100	> 100	> 100	> 100	> 100	> 100	–	> 31.6	–	–	–	–	–	–	–	–	–	–
CON(C)c1nc(N(C)OC)nc(N(C)OC)n1	–	> 10	> 10	> 10	> 10	> 10	> 10	> 10	> 10	> 10	–	–	–	–	–	–	–	–	–	–
CC(N)Cc1ccc(Cl)c(Cl)c1 (stereo unspecified)	54.9	–	74.5	> 83	> 60.2	33.9	31	> 100	–	> 100	–	–	–	–	–	–	–	–	–	–
COC(=O)c1c(C)n([O-])c2cc(Cl)c(Cl)cc2[n+]1=O	54.9	> 100	61	61.5	54.4	76.6	23.4	52.4	62.8	59.3	–	–	–	–	–	–	–	–	–	–
CCN1CCC(O)(/C=C/c2ccccc2C)C(C(=O)/C=C/c2ccccc2C)C1 (stereo unspecified)	9.31	4.32	3.21	10.1	4.28	4.45	2.9	4.77	7.04	7.85	–	–	–	–	–	–	–	–	–	–
CN1C(c2ccccc2)CC(=O)C(N)C1c1ccccc1 (stereo unspecified)	> 87.1	–	> 75.2	> 100	> 96.5	> 69.2	33.6	> 86.3	–	> 81.2	–	–	–	–	–	–	–	–	–	–
O=C(N/N=C/c1ccc([N+](=O)[O-])cc1)Nc1ccc(C(=O)O)cc1	> 100	49.5	> 100	> 100	> 100	> 100	45.9	26	> 100	> 100	–	–	–	–	–	–	–	–	–	–
c1cnc2c(c1)ccc1cccnc12	> 31.5	> 100	27.3	> 92	> 100	> 26.9	> 34	> 86.6	> 100	> 100	–	–	–	–	–	–	–	–	–	–
COC(=O)/C=C(\CC(=O)OC)n1nnnc1[C@@H]1C[C@H](COC(c2ccccc2)(c2ccccc2)c2ccccc2)[C@H]2OC(C)(C)O[C@H]21	> 100	> 100	> 100	> 100	> 100	> 100	> 100	> 100	> 100	> 100	–	–	–	–	–	–	–	–	–	–
CCCCCCCCCCCCCCCC(=O)N1CCCC1C(=O)NCC(=O)NC(Cc1ccccc1)C(=O)NC(C)C(=O)NC(CO)C(=O)NC(Cc1ccc(O)cc1)C(=O)NC(CCCCN)C(=O)NC(CC(C)C)C(=O)NC(CCCN=C(N)N)C(=O)N1CCCC1C(=O)NCC(N)=O (stereo unspecified) (Palmitoyl-PGFASYKLRPG-NH2; configuration not given here)	52.7	39.6	32.1	41.5	61.4	35.3	> 100	56.6	54.5	51.9	26.4	17.4	12.4	18.4	24	16.8	24	33.4	24.2	14
Cc1ccc(-c2nc(N/N=C/C=C/c3ccccc3)c3ccccc3n2)cc1	> 100	> 100	> 100	38.7	> 100	> 100	> 100	> 100	> 100	> 100	–	–	–	–	–	–	–	–	–	–
C=C(C)C1Cc2c(c3ccccc3n(C)c2=O)O1 (stereo unspecified)	–	–	> 100	> 100	> 100	> 100	> 100	> 100	–	> 100	–	–	–	–	–	–	–	–	–	–
c1ccc(-c2nc(N3CCNCC3)c3oc(-c4ccccc4)nc3n2)cc1	–	4.95	3.18	–	3.17	–	3.2	3.21	3.12	–	–	2.1	1.66	–	1.76	–	–	1.77	1.74	1.65
